Molecular target: T1, human RXFP1 (Homo sapiens, UniProt Q9HBX9)
T1 construct: expressed in transfected cells
T1 sequence (Q9HBX9 1-757): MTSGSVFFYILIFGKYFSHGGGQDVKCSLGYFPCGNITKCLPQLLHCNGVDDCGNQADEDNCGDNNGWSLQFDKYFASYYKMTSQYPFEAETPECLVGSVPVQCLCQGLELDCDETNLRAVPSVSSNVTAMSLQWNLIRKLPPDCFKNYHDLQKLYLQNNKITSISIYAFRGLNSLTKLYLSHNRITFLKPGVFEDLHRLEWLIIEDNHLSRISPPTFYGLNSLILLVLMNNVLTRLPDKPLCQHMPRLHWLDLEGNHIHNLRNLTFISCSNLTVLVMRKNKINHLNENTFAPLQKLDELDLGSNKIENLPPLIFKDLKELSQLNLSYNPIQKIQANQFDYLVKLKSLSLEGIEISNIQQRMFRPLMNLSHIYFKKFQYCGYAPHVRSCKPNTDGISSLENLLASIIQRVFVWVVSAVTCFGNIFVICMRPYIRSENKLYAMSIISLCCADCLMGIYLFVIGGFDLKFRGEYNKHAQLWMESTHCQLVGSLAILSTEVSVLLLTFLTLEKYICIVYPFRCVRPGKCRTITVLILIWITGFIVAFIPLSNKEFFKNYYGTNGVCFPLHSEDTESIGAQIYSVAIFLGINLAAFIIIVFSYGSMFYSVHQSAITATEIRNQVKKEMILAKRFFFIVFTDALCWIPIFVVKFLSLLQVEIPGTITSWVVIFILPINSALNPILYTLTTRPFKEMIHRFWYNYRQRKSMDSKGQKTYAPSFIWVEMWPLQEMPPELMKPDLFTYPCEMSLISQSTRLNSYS
Assay: hRXFP1 HEK293 cAMP assay (HTRF)
Type: cell-based
Settings: HEK293 cells stably expressing human RXFP1; 30 min at rt; intracellular cAMP by HTRF
Protocol: RXFP1 Cyclic Adenosine Monophosphate (cAMP) Assays. Human embryonic kidney cells 293 (HEK293) cells and HEK293 cells stably expressing human RXFP1, were cultured in MEM medium supplemented with 10% qualified FBS, and 300 μg/ml hygromycin (Life Technologies). Cells were dissociated and suspended in assay buffer. The assay buffer was HBSS buffer (with calcium and magnesium) containing 20 mM HEPES, 0.05% BSA, and 0.5 mM IBMX. Cells (3000 cells per well, except 1500 cell per well for HEK293 cells stably expressing human RXFP1) were added to 384-well Proxiplates (Perkin-Elmer). Cells were immediately treated with test compounds in DMSO (2% final) at final concentrations in the range of 0.010 nM to 50 μM. Cells were incubated for 30 min at rt. The level of intracellular cAMP was determined using the HTRF HiRange cAMP assay reagent kit (Cisbio) according to manufacturer's instructions. Solutions of cryptate conjugated anti-cAMP and d2 fluorophore-labelled cAMP were made in a supplied lysis buffer separately. Upon completion of the reaction, the cells were lysed with equal volume of the d2-cAMP solution and anti-cAMP solution. After a 1 h rt incubation, time-resolved fluorescence intensity was measured using the Envision (Perkin-Elmer) at 400 nm excitation and dual emission at 590 nm and 665 nm. A calibration curve was constructed with an external cAMP standard at concentrations ranging from 2.7 μM to 0.1 pM by plotting the fluorescent intensity ratio from 665 nm emission to the intensity from the 590 nm emission against cAMP concentrations. The potency and activity of a compound to […] cAMP production was then determined by fitting to a 4-parametric logistic equation from a plot of cAMP level versus compound concentrations.
The examples disclosed below were tested in the human RXFP1 (hRXFP1) HEK293 cAMP assay described above and found to have agonist activity.

Compound | EC50
COc1ccc(C2CCCN(CCO)CC2)cc1C(=O)Nc1c(C(=O)Nc2ccc(F)c(C(F)(F)F)c2)sc2cc(C(F)(F)F)ccc12 (single isomer, unassigned) [Example 69, N-(4-fluoro-3-(trifluoromethyl)phenyl)-3-(5-(1-(2-hydroxyethyl)azepan-4-yl)-2-methoxy-benzamido)-6-(trifluoromethyl) benzo[b] thiophene-2-carboxamide] | 760 nM
COc1ccc(C2CCCN(CC(N)=O)CC2)cc1C(=O)Nc1c(C(=O)Nc2ccc(F)c(C(F)(F)F)c2)sc2cc(C(F)(F)F)ccc12 (single isomer, unassigned) [Example 70, 3-(5-(1-(2-amino-2-oxoethyl)azepan-4-yl)-2-methoxy-benzamido)-N-(4-fluoro-3-(trifluoromethyl)phenyl)-6-(trifluoromethyl) benzo[b] thiophene-2-carboxamide] | 46.8 nM
COc1ccc(C2CCCN(CCO)CC2)cc1C(=O)Nc1c(C(=O)Nc2ccc(F)c(C(F)(F)F)c2)sc2cc(C(F)(F)F)ccc12 (single isomer, unassigned) [Example 72, N-(4-fluoro-3-(trifluoromethyl)phenyl)-3-(5-(1-(2-hydroxyethyl)azepan-4-yl)-2-methoxy-benzamido)-6-(trifluoromethyl) benzo[b] thiophene-2-carboxamide] | 4310 nM
COc1ccc(C2CCCN(CC(N)=O)CC2)cc1C(=O)Nc1c(C(=O)Nc2ccc(F)c(C(F)(F)F)c2)sc2cc(C(F)(F)F)ccc12 (single isomer, unassigned) [Example 73, 3-(5-(1-(2-amino-2-oxoethyl)azepan-4-yl)-2-methoxy-benzamido)-N-(4-fluoro-3-(trifluoromethyl)phenyl)-6-(trifluoromethyl) benzo[b] thiophene-2-carboxamide] | 1040 nM
COc1ccc(C2CCC(O)CC2)cc1C(=O)Nc1c(C(=O)Nc2ccc(F)c(C(F)(F)F)c2)sc2cc(C(F)(F)F)ccc12 (single isomer, unassigned) [Example 75, N-(4-fluoro-3-(trifluoromethyl)phenyl)-3-(5-(4-hydroxycyclo-hexyl)-2-methoxy-benzamido)-6-(trifluoromethyl) benzo[b] thiophene-2-carboxamide] | 420 nM
COc1ccc(C2CCC(O)CC2)cc1C(=O)Nc1c(C(=O)Nc2ccc(F)c(C(F)(F)F)c2)sc2cc(C(F)(F)F)ccc12 (single isomer, unassigned) [Example 76, N-(4-fluoro-3-(trifluoromethyl)phenyl)-3-(5-(4-hydroxycyclo-hexyl)-2-methoxy-benzamido)-6-(trifluoromethyl) benzo[b] thiophene-2-carboxamide] | 498 nM
COc1ccc(C2CCCNC2)cc1C(=O)Nc1c(C(=O)Nc2ccc(F)c(C(F)(F)F)c2)sc2cc(C(F)(F)F)ccc12 (single isomer, unassigned) [Example 77, N-(4-fluoro-3-(trifluoromethyl)phenyl)-3-(2-methoxy-5-(piperidin-3-yl)benzamido)-6-(trifluoromethyl) benzo[b] thiophene-2-carboxamide] | 469 nM
COc1ccc(C2CCCN(CC(=O)N(C)C)C2)cc1C(=O)Nc1c(C(=O)Nc2ccc(F)c(C(F)(F)F)c2)sc2cc(C(F)(F)F)ccc12 (single isomer, unassigned) [Example 82, 3-(5-(1-(2-(dimethylamino)-2-oxoethyl)piperidin-3-yl)-2-methoxy-benzamido)-N-(4-fluoro-3-(trifluoromethyl)phenyl)-6-(trifluoromethyl) benzo[b] thiophene-2-carboxamide] | 978 nM
COc1ccc(C2CCCN(CCS(C)(=O)=O)C2)cc1C(=O)Nc1c(C(=O)Nc2ccc(F)c(C(F)(F)F)c2)sc2cc(C(F)(F)F)ccc12 (single isomer, unassigned) [Example 86, N-(4-fluoro-3-(trifluoromethyl)phenyl)-3-(2-methoxy-5-(1-(2-(methylsulfonyl)ethyl)piperidin-3-yl)benzamido)-6-(trifluoromethyl) benzo[b] thiophene-2-carboxamide] | 1150 nM
COc1ccc(C2CCCN(C(=O)CN(C)C)C2)cc1C(=O)Nc1c(C(=O)Nc2ccc(F)c(C(F)(F)F)c2)sc2cc(C(F)(F)F)ccc12 (single isomer, unassigned) [Example 87, 3-(5-(1-(dimethylglycyl)piperidin-3-yl)-2-methoxy-benzamido)-N-(4-fluoro-3-(trifluoromethyl)phenyl)-6-(trifluoromethyl) benzo[b] thiophene-2-carboxamide] | 1160 nM
COc1ccc(C2CCCN(C(=O)CO)C2)cc1C(=O)Nc1c(C(=O)Nc2ccc(F)c(C(F)(F)F)c2)sc2cc(C(F)(F)F)ccc12 (single isomer, unassigned) [Example 91, N-[4-fluoro-3-(trifluoromethyl)phenyl]-3-{5-[1-(2-hydroxyacetyl)piperidin-3-yl]-2-methoxy-benzamido}-6-(trifluoromethyl)-1-benzothiophene-2-carboxamide] | 95.8 nM
COc1ccc(C2CCCN(C(=O)C(C)(C)CO)C2)cc1C(=O)Nc1c(C(=O)Nc2ccc(F)c(C(F)(F)F)c2)sc2cc(C(F)(F)F)ccc12 (single isomer, unassigned) [Example 93, N-[4-fluoro-3-(trifluoromethyl)phenyl]-3-{5-[1-(3-hydroxy-2,2-dimethyl-propanoyl)piperidin-3-yl]-2-methoxy-benzamido}-6-(trifluoromethyl)-1-benzothiophene-2-carboxamide] | 48.4 nM
COc1ccc(C2CCCN(CC(=O)N(C)C)C2)cc1C(=O)Nc1c(C(=O)Nc2ccc(F)c(C(F)(F)F)c2)sc2cc(C(F)(F)F)ccc12 (single isomer, unassigned) [Example 101, 3-(5-(1-(2-(dimethylamino)-2-oxoethyl)piperidin-3-yl)-2-methoxy-benzamido)-N-(4-fluoro-3-(trifluoromethyl)phenyl)-6-(trifluoromethyl) benzo[b] thiophene-2-carboxamide] | 4420 nM
COc1ccc(C2CCCN(C(=O)CO)C2)cc1C(=O)Nc1c(C(=O)Nc2ccc(F)c(C(F)(F)F)c2)sc2cc(C(F)(F)F)ccc12 (single isomer, unassigned) [Example 103, N-[4-fluoro-3-(trifluoromethyl)phenyl]-3-{5-[1-(2-hydroxyacetyl)piperidin-3-yl]-2-methoxy-benzamido}-6-(trifluoromethyl)-1-benzothiophene-2-carboxamide] | 690 nM
COc1ccc(C2CCCN(C(=O)C(C)(C)CO)C2)cc1C(=O)Nc1c(C(=O)Nc2ccc(F)c(C(F)(F)F)c2)sc2cc(C(F)(F)F)ccc12 (single isomer, unassigned) [Example 105, N-[4-fluoro-3-(trifluoromethyl)phenyl]-3-{5-[1-(3-hydroxy-2,2-dimethyl-propanoyl)piperidin-3-yl]-2-methoxy-benzamido}-6-(trifluoromethyl)-1-benzothiophene-2-carboxamide] | 149 nM
COc1ccc(N2CCCC(C(C)(C)O)C2)cc1C(=O)Nc1c(C(=O)Nc2ccc(F)c(C(F)(F)F)c2)sc2cc(C(F)(F)F)ccc12 (single isomer, unassigned) [Example 107, N-(4-fluoro-3-(trifluoromethyl)phenyl)-3-(5-(3-(2-hydroxypropan-2-yl)piperidin-1-yl)-2-methoxy-benzamido)-6-(trifluoromethyl) benzo[b] thiophene-2-carboxamide] | 918 nM
COc1ccc(N2CCCC(C(C)(C)O)C2)cc1C(=O)Nc1c(C(=O)Nc2ccc(F)c(C(F)(F)F)c2)sc2cc(C(F)(F)F)ccc12 (single isomer, unassigned) [Example 108, N-(4-fluoro-3-(trifluoromethyl)phenyl)-3-(5-(3-(2-hydroxypropan-2-yl)piperidin-1-yl)-2-methoxy-benzamido)-6-(trifluoromethyl) benzo[b] thiophene-2-carboxamide] | 1430 nM
